This passage reports IC50 results from the Kinase Knowledgebase extract (Sharma et al. 2016).

This assay deals with CDK2 (human) (UniProt P24941). Briefly: Enzyme Assay.

`Cc1c(N[C@H]2CC[C@H](N)CC2)nc2ccnn2c1Nc1ccc(-c2ccncc2)cc1` returned an IC50 of less than 100 µM.

`CCOc1ccc(Nc2c(C)c(NC3CCCNC3)nc3c(C#N)cnn23)cc1` (stereo unspecified) gave an IC50 of less than 100 µM.

`CC(=O)c1ccc(-c2ccc(Nc3c(C)c(N[C@H]4CCCNC4)nc4ccnn34)cc2)s1` returned an IC50 of less than 100 µM.

With `CCOc1ccc(Nc2c(C)c(N[C@H]3CC[C@H](N)CC3)nc3c(N)cnn23)cc1`, the IC50 was less than 100 µM.

The molecule `Cc1c(N[C@H]2CC[C@H](N)CC2)nc2ccnn2c1Nc1ccc(OCCN2CCCCC2)cc1` yielded an IC50 of less than 100 µM.

In the case of `Cc1c(N[C@H]2CC[C@H](N)CC2)nc2ccnn2c1Nc1ccc(-c2ccccc2O)cc1`, the IC50 is less than 100 µM.

Turning to `COc1ccc(Nc2c(CCCO)c(N[C@H]3CC[C@H](N)CC3)nc3ccnn23)cc1`, the half-maximal inhibitory concentration (IC50) was less than 100 µM.

The molecule `Cc1c(NC2CCCNC2)nc2ccnn2c1Nc1ccc(F)c(Cl)c1` (stereo unspecified) gave a concentration for half-maximal inhibition (IC50) of less than 100 µM.

Consider `COc1cccc(-c2ccc(Nc3c(C)c(N[C@H]4CC[C@H](N)CC4)nc4ccnn34)cc2)c1`, for which the IC50 is less than 100 µM.

`Cc1c(N[C@H]2CC[C@H](N)CC2)nc2ccnn2c1Nc1ccc(-c2cccc(O)c2)cc1`: the IC50 was less than 100 µM.

`Cc1ccc(COc2cccc(Nc3c(C)c(N[C@H]4CC[C@H](N)CC4)nc4ccnn34)c2)cc1` had an IC50 of less than 100 µM.

In turn, `CCOc1ccc(Nc2c(C)c(N[C@H]3CC[C@H](N)CC3)nc3ccnn23)cc1` displayed an IC50 of less than 100 µM.

In turn, `COCCOc1ccc(Nc2c(C)c(N[C@H]3CC[C@H](N)CC3)nc3ccnn23)cc1` yielded an IC50 of less than 100 µM.

With `Cc1c(N[C@H]2CC[C@H](N)CC2)nc2ccnn2c1Nc1ccc(-c2cccnc2)cc1`, the IC50 is less than 100 µM.

As to `Cc1c(N[C@H]2CC[C@H](N)CC2)nc2ccnn2c1Nc1ccc(OCCn2ccnc2)cc1`, the 50% inhibitory concentration (IC50) is less than 100 µM.

In turn, `CCc1c(N[C@H]2CC[C@H](N)CC2)nc2ccnn2c1Nc1cccc(I)c1` yielded a 50% inhibitory concentration (IC50) of less than 100 µM.

Molecule `CCOc1ccc(Nc2c(C)c(N[C@@H]3CCN(Cc4ccccc4)C3)nc3ccnn23)cc1` registered a half-inhibitory concentration (IC50) of less than 100 µM.

`CCOc1ccc(Nc2c(CC)c(N[C@H]3CC[C@H](N)CC3)nc3ccnn23)cc1` returned an IC50 of less than 100 µM.

In turn, `CCOc1ccc(Nc2c(-c3ccc(OC)cc3)c(N[C@H]3CC[C@H](N)CC3)nc3ccnn23)cc1` displayed a half-maximal inhibitory concentration (IC50) of less than 100 µM.

`CCc1c(N[C@H]2CC[C@H](N)CC2)nc2ccnn2c1Nc1cccc(C(N)=O)c1` had a 50% inhibitory concentration (IC50) of less than 100 µM.

Molecule `Cc1c(N[C@H]2CC[C@H](N)CC2)nc2ccnn2c1Nc1ccc(F)c(Cl)c1` had an IC50 of less than 100 µM.

In the case of `CCCCOc1ccc(Nc2c(CC)c(N[C@H]3CC[C@H](N)CC3)nc3ccnn23)cc1`, the IC50 was less than 100 µM.

Turning to `CCOc1ccc(Nc2c(C)c(NC3CCCNC3)nc3c(CC)cnn23)cc1` (stereo unspecified), the IC50 is less than 100 µM.

Consider `CCc1c(NC2CCCNC2)nc2ccnn2c1Nc1ccc(F)c(Cl)c1` (stereo unspecified), for which the IC50 was less than 100 µM.

`Cc1c(NC2CCCNC2)nc2ccnn2c1Nc1ccccc1F` (stereo unspecified) returned a half-maximal inhibitory concentration (IC50) of less than 100 µM.

The molecule `CCc1c(N[C@H]2CC[C@H](N)CC2)nc2ccnn2c1Nc1cccc(Oc2ccccc2)c1` returned a 50% inhibitory concentration (IC50) of less than 100 µM.

Molecule `Cc1c(N[C@H]2CC[C@H](N)CC2)nc2ccnn2c1Nc1ccc(OC(F)(F)F)cc1` displayed an IC50 of less than 100 µM.

`N[C@H]1CC[C@H](Nc2cc(Nc3ccc(F)c(Cl)c3)n3ncc(Br)c3n2)CC1` registered an IC50 of less than 100 µM.

`C=CCNc1c(-c2ccccc2)c(N[C@H]2CC[C@H](N)CC2)nc2ccnn12` had a 50% inhibitory concentration (IC50) of less than 100 µM.

Consider `Cc1cccc(-c2ccc(Nc3c(C)c(N[C@H]4CC[C@H](N)CC4)nc4ccnn34)cc2)c1`, for which the IC50 is less than 100 µM.

Molecule `Cc1c(N[C@H]2CC[C@H](N)CC2)nc2ccnn2c1Nc1ccc(-c2ccc(CO)cc2)cc1` registered a half-inhibitory concentration (IC50) of less than 100 µM.

In the case of `Cc1c(N[C@H]2CC[C@H](N)CC2)nc2ccnn2c1NCC(C)(C)C`, the half-inhibitory concentration (IC50) was less than 100 µM.

Take `CCOc1ccc(Nc2c(C)c(NC3CCCNC3)nc3c(C4CCCCC4)cnn23)cc1` (stereo unspecified): the IC50 was less than 100 µM.

Consider `Cc1c(N[C@H]2CC[C@H](N)CC2)nc2ccnn2c1Nc1ccc(OC2CCCC2)cc1`, for which the concentration for half-maximal inhibition (IC50) is less than 100 µM.

As to `CCS(=O)(=O)c1ccc(-c2ccc(Nc3c(C)c(N[C@H]4CC[C@H](N)CC4)nc4ccnn34)cc2)cc1`, the half-inhibitory concentration (IC50) is less than 100 µM.

`Cc1c(N[C@H]2CC[C@H](N)CC2)nc2ccnn2c1Nc1cccc(O)c1` registered a 50% inhibitory concentration (IC50) of less than 100 µM.

`CCc1c(N[C@H]2CC[C@H](N)CC2)nc2ccnn2c1Nc1ccc(Oc2ccc(C)cc2)cc1` had a concentration for half-maximal inhibition (IC50) of less than 100 µM.

As to `CCOC(=O)c1cccc(Nc2c(C)c(N[C@H]3CC[C@H](N)CC3)nc3ccnn23)c1`, the IC50 was less than 100 µM.

Consider `Cc1c(N[C@H]2CC[C@H](N)CC2)nc2ccnn2c1Nc1cccc(OCc2cccc(Cl)c2)c1`, for which the half-inhibitory concentration (IC50) is less than 100 µM.

In turn, `Cc1c(N[C@H]2CC[C@H](N)CC2)nc2ccnn2c1Nc1ccc(-c2ccc(F)cc2)cc1` came in with an IC50 of less than 100 µM.

Molecule `CCc1c(N[C@H]2CC[C@H](N)CC2)nc2ccnn2c1Nc1ccc(OC)c(OC)c1` yielded a 50% inhibitory concentration (IC50) of less than 100 µM.

Turning to `Cc1c(N[C@H]2CC[C@H](N)CC2)nc2ccnn2c1Nc1cccc2[nH]ccc12`, the IC50 was less than 100 µM.

As for `Cc1c(N[C@H]2CC[C@H](N)CC2)nc2ccnn2c1Nc1ccccc1Cl`, the concentration for half-maximal inhibition (IC50) is less than 100 µM.

Molecule `Cc1c(N[C@H]2CC[C@H](N)CC2)nc2ccnn2c1Nc1ccc(OCc2cccc(N)c2)cc1` showed a half-inhibitory concentration (IC50) of less than 100 µM.

Molecule `Cc1csc(-c2ccc(Nc3c(C)c(N[C@H]4CC[C@H](N)CC4)nc4ccnn34)cc2)c1` showed an IC50 of less than 100 µM.

For `Cc1ccc(Nc2c(C)c(NC3CCCNC3)nc3ccnn23)cc1C` (stereo unspecified), the half-inhibitory concentration (IC50) is less than 100 µM.

Take `Cc1c(NC2CCCNC2)nc2ccnn2c1Nc1ccc(-c2ccsc2)cc1` (stereo unspecified): the half-inhibitory concentration (IC50) is less than 100 µM.

Consider `Cc1c(N[C@H]2CC[C@H](N)CC2)nc2ccnn2c1Nc1ccc(-c2ccc(N)cc2)cc1`, for which the half-maximal inhibitory concentration (IC50) was less than 100 µM.

Consider `CCc1c(N[C@H]2CC[C@H](N)CC2)nc2ccnn2c1Nc1ccc(OC)cc1`, for which the concentration for half-maximal inhibition (IC50) was less than 100 µM.

`Cc1ccc(Nc2c(C)c(N[C@H]3CC[C@H](N)CC3)nc3ccnn23)cc1C` registered an IC50 of less than 100 µM.

On to `CCc1c(N[C@H]2CC[C@H](N)CC2)nc2ccnn2c1Nc1ccccc1`, for which the IC50 is less than 100 µM.

The molecule `Cc1c(N[C@H]2CC[C@H](N)CC2)nc2ccnn2c1Nc1ccc(OCC2CCCCC2)cc1` returned an IC50 of less than 100 µM.

The molecule `CSc1cccc(Nc2c(C)c(N[C@H]3CC[C@H](N)CC3)nc3ccnn23)c1` registered a concentration for half-maximal inhibition (IC50) of less than 100 µM.

`CCOc1ccc(Nc2c(C)c(N[C@H]3CC[C@H](N)CC3)nc3c(C(=O)Nc4ccncc4)cnn23)cc1` gave an IC50 of less than 100 µM.

`CCc1c(N[C@H]2CC[C@H](N)CC2)nc2ccnn2c1Nc1ccc(N2CCCCC2)cc1`: the IC50 was less than 100 µM.

With `Cc1c(N[C@H]2CC[C@H](N)CC2)nc2ccnn2c1Nc1ccc(OCCC2CCCCN2)cc1` (stereo partly specified), the concentration for half-maximal inhibition (IC50) was less than 100 µM.

In turn, `N[C@H]1CC[C@H](Nc2cc(NCc3ccc(F)c(Cl)c3)n3ncc(Br)c3n2)CC1` yielded an IC50 of less than 100 µM.

In turn, `Cc1c(N[C@H]2CC[C@H](N)CC2)nc2ccnn2c1Nc1ccc(-c2ccc(Cl)cc2)cc1` gave an IC50 of less than 100 µM.

On to `Cc1c(N[C@H]2CC[C@H](N)CC2)nc2ccnn2c1Nc1cccc(OCc2cccnc2)c1`, for which the IC50 is less than 100 µM.

The molecule `CCOc1ccccc1Nc1c(C)c(N[C@H]2CC[C@H](N)CC2)nc2ccnn12` displayed a half-maximal inhibitory concentration (IC50) of less than 100 µM.

`Cc1c(NC2CCCNC2)nc2ccnn2c1Nc1ccc(I)cc1` (stereo unspecified) had a half-inhibitory concentration (IC50) of less than 100 µM.

Regarding `Cc1c(N[C@H]2CC[C@H](N)CC2)nc2ccnn2c1Nc1ccc(OCc2ccc(Cl)cc2)cc1`, the IC50 was less than 100 µM.

`Cc1c(N[C@H]2CC[C@H](N)CC2)nc2ccnn2c1Nc1ccc(C(=O)Nc2ccccc2)cc1`: the IC50 was less than 100 µM.

In turn, `CCOc1ccc(Nc2c(C)c(N[C@H]3CC[C@H](N)CC3)nc3c(C(=O)Nc4ccccc4)cnn23)cc1` gave an IC50 of less than 100 µM.

The molecule `Cc1c(N[C@H]2CC[C@H](N)CC2)nc2ccnn2c1Nc1ccc(OCCc2ccncc2)cc1` showed an IC50 of less than 100 µM.

In turn, `CCOc1ccc(Nc2c(C)c(N[C@H]3CCNC3)nc3ccnn23)cc1` showed a half-maximal inhibitory concentration (IC50) of less than 100 µM.

For the molecule `Cc1c(N[C@H]2CC[C@H](N)CC2)nc2ccnn2c1Nc1ccc(-c2ccc(O)cc2)cc1`, the IC50 is less than 100 µM.

For the molecule `Cc1cscc1-c1ccc(Nc2c(C)c(N[C@H]3CC[C@H](N)CC3)nc3ccnn23)cc1`, the IC50 is less than 100 µM.

`Cc1c(N[C@H]2CC[C@H](N)CC2)nc2ccnn2c1Nc1cccc(OCc2ccccc2)c1` gave a concentration for half-maximal inhibition (IC50) of less than 100 µM.

`Cc1c(N[C@H]2CC[C@H](N)CC2)nc2ccnn2c1Nc1ccc(-c2cccc(Cl)c2)cc1` returned a concentration for half-maximal inhibition (IC50) of less than 100 µM.

The molecule `C=CCNc1c(CC)c(N[C@H]2CC[C@H](N)CC2)nc2ccnn12` gave an IC50 of less than 100 µM.

`Cc1c(N[C@H]2CC[C@H](N)CC2)nc2ccnn2c1Nc1cccc(I)c1` displayed an IC50 of less than 100 µM.

In the case of `Cc1c(N[C@H]2CC[C@H](N)CC2)nc2ccnn2c1Nc1ccc2c(c1)OCCO2`, the half-inhibitory concentration (IC50) was less than 100 µM.

Molecule `Cc1c(N[C@H]2CC[C@H](N)CC2)nc2ccnn2c1Nc1ccc2ncsc2c1` came in with an IC50 of less than 100 µM.

`CCOc1ccc(Nc2cc(N[C@H]3CC[C@H](N)CC3)nc3c(I)cnn23)cc1` showed an IC50 of less than 100 µM.

The molecule `Cc1c(N[C@H]2CC[C@H](N)CC2)nc2ccnn2c1Nc1ccc(OCC2CCCO2)cc1` (stereo partly specified) came in with a 50% inhibitory concentration (IC50) of less than 100 µM.

Molecule `CCOc1ccc(Nc2c(C)c(N(C)C3CCCNC3)nc3ccnn23)cc1` (stereo unspecified) showed a half-inhibitory concentration (IC50) of less than 100 µM.

`Cc1c(N[C@H]2CC[C@H](N)CC2)nc2c(C(=O)C(F)(F)F)cnn2c1Nc1ccc(I)cc1` had an IC50 of less than 100 µM.

`CCOc1ccc(Nc2c(C)c(NC(C)(C)CO)nc3ccnn23)cc1` had an IC50 of less than 100 µM.

`CCOC(=O)c1cccc(Nc2c(CC)c(N[C@H]3CC[C@H](N)CC3)nc3ccnn23)c1`: the IC50 was less than 100 µM.

`Cc1nc2cc(Nc3c(C)c(N[C@H]4CC[C@H](N)CC4)nc4ccnn34)ccc2s1` registered an IC50 of less than 100 µM.

On to `CCc1c(N[C@H]2CC[C@H](N)CC2)nc2ccnn2c1Nc1ccc(OCc2ccccc2)cc1`, for which the half-inhibitory concentration (IC50) is less than 100 µM.

The molecule `CCc1c(NC2CCNCC2)nc2ccnn2c1Nc1ccc(F)c(Cl)c1` came in with an IC50 of less than 100 µM.

Regarding `Cc1c(N[C@H]2CC[C@H](N)CC2)nc2ccnn2c1Nc1ccc(OCc2ccccn2)cc1`, the IC50 is less than 100 µM.

`Cc1c(N[C@H]2CC[C@H](N)CC2)nc2ccnn2c1Nc1ccc(-c2cccc(C#N)c2)cc1` yielded a concentration for half-maximal inhibition (IC50) of less than 100 µM.

The molecule `Cc1cc2cc(Nc3c(C)c(N[C@H]4CC[C@H](N)CC4)nc4ccnn34)ccc2[nH]1` had a 50% inhibitory concentration (IC50) of less than 100 µM.
